# In patent US11396548B2, “EGFR targeted therapy of neurological disorders and pain” (Sykehuset Sørlandet HF, priority 2012, dated 2022):
# Entries after “also recorded” stand apart in the source; their conditions may differ.
# Key:
# Format in all cases: in vivo, human
# [1] = tested on: patients with neuropathic pain; test: Case reports: relief of neuropathic pain by EGFR inhibitors (0-10 NRS / Brief Pain Inventory); details: for Phantom-limb pain response: Case 5, panitumumab then erlotinib; for NP relief (summary of the cases): conditions where proximal and/or distal parts of peripheral nerves were affected
# Procedure: The term “in vivo” refers to the natural environment (e.g., an animal or a cell) and to processes or reaction that occur within a natural environment. […] Pain interference is assessed using the Brief Pain Inventory (BPI). BPI is used to evaluate pain interference with the following: (a) general activity, (b) mood, (c) walking ability, (d) normal work, (e) relations with other people, (f) sleep, and (g) enjoyment of life. Total score for pain interference is calculated as: (Mean score of non-missing questions)×(7/number of non-missing questions). If four or more questions are missing, the pain interference total score is set to missing.
# In some cases, the patients were asked to complete a BPI short form daily, just before and during the EGFR inhibition, in order to document their neuropathic pain and thus, help us to judge their responses and guide treatment decisions.
# [2] = Case reports: concomitant analgesic / opioid requirement during EGFR inhibition
# [3] = Case reports: side effects of EGFR inhibitors
# [4] = Case reports: performance status, function, quality of life and accompanying symptoms; details: Case 7, CIPN; after six to eight weeks of treatment
# [5] = Case 2, yrs, complex regional pain syndrome type 1 of the right hand, sequence cetuximab, panitumumab, cetuximab, gefitinib, erlotinib
# [6] = Case 14, panitumumab then erlotinib, four weeks
# [7] = Case 2, CRPS1, after gefitinib discontinuation, 10/10 before treatment
compound,measurement,setting,value
C#Cc1cccc(Nc2ncnc3cc(OCCOC)c(OCCOC)cc23)c1 [erlotinib],Neuropathic pain response,[1]; [5],pain-free upon conversion from panitumumab to erlotinib; also recorded: has not recurred since; also recorded: continues to be completely resolved
same,Phantom-limb pain response,[1],reported phantom-limb pain improvement
same,Least degree of pain,"[1]; Case 9, 10 days on erlotinib 150 mg tablets",0 /10
same,Onset of effect,"[1]; Case 9, oral erlotinib 150 mg",four to five days
same,Pain relief,"[1]; Case 13, 150 mg oral erlotinib after panitumumab, over the following three weeks",up to 70%
same,Pain reduction,"[1]; Case 13, four weeks after starting erlotinib, week with slightly worsening pain, uses omeprazole",60%
same,Average pain,"[1]; Case 14, four weeks after start of EGFR-I (panitumumab), one week after starting erlotinib, around 5 before",4 out of 10
same,Maximum pain,"[1]; Case 14, four weeks after start of EGFR-I, one week after starting erlotinib, 10 before",6 0-10 pain scale
same,NP relief (summary of the cases),[1],led to complete NP relief
same,"Neuropathic pain response (BPI scores, FIG. 7 lower panel)",[1]; previously EGFR-I naive patient (case 9),responded to upfront treatment
same,Analgesic requirement,[2]; Case 5,opioid requirement diminished
same,Side effect,"[3]; Case 9, erlotinib",dry skin grade II which was transient
same,Side effects,[3]; [6],has not experienced any side effects to date
panitumumab,Pain score 48 hours after panitumumab infusion,[1]; [7],3 /10
same,Pain score the next day after panitumumab infusion,[1]; [7],5 /10
same,Neuropathic pain response,[1]; [5],recurrence of severe pain on the very same evening as the panitumumab infusion; also recorded: completely gone again on the third day; also recorded: dramatic increase in pain just hours after infusion; also recorded: dramatic pain relief within hours
same,Phantom-limb pain response,[1],again effectively alleviated within one day after the second infusion
same,Time to complete relief after first infusion,"[1]; Case 6, panitumumab",≤ 24 h
same,Pain reduction,"[1]; Case 7, CIPN, after four to six weeks (2-3 doses) of panitumumab",60-70%
same,Maximum pain intensity,"[1]; Case 7, CIPN, two weeks after first panitumumab, only lasted a few seconds",ten out of ten
same,Duration of painful bursts,"[1]; Case 7, CIPN, two weeks after first panitumumab, several minutes before",five to ten seconds
same,Herpes Zoster related symptoms,"[1]; Case 8, herpetic neuralgia Th5, Day 20, panitumumab infusion, bursts 10/10 on days 16-20",pain had completely resolved.
same,"Herpes Zoster related symptoms: intensity, frequency and duration of painful bursts","[1]; Case 8, Day 34",improve (since day 21).
same,"Time to complete pain relief, into the infusion","[1]; Case 8, panitumumab infusion on day 20",approximately 10 minutes
same,Pain level at recurrence,"[1]; Case 10, 15 days after the initial panitumumab infusion",9 out of 10
same,Pain intensity during the following weeks,"[1]; Case 10, after first panitumumab 6 mg/kg",2-3 NRS
same,Neuropathic pain response,"[1]; Case 11, two days after panitumumab infusion and on continued treatment every 2 weeks",completely gone; also recorded: NP has not recurred
same,Reported pain reduction,"[1]; Case 12, after two panitumumab infusions",75%
same,Duration of analgesic effect,"[1]; Case 12, first panitumumab infusion",lasted only one week
same,Worst pain level after second infusion,"[1]; Case 12, second panitumumab infusion after two weeks, pregabalin reduced from 375 mg to 225 mg",around three
same,Peak NP in occasional episodes,"[1]; Case 12, three months after initial EGFR-I administration",3
same,Average NP,"[1]; Case 12, three months after initial EGFR-I administration, treatment on hold",2
same,Reduction in pain intensity,"[1]; Case 13, yrs, CIPN (oxaliplatin), two days after 6 mg/kg panitumumab i.v.",20-30%
same,Distribution of pain,"[1]; Case 13, two days after panitumumab, pain only located distally in feet",the pain in the legs had completely disappeared
same,"Pain further reduced by, of baseline levels","[1]; Case 13, two weeks after the panitumumab infusion",30-40%
same,Worst pain in the first two weeks after the infusion,"[1]; Case 14, panitumumab, amitryptiline reduced from 40 mg to 20 mg, exacerbations 10 out of 10 before",6-7 out of 10
same,Time to pain recurrence after panitumumab,[1]; case 3,roughly 20 days
same,NP relief (summary of the cases),[1],led to complete NP relief
same,Analgesic requirement,[2]; Case 5,required less breakthrough pain medication
same,Analgesic requirement,"[2]; Case 6, during panitumumab treatment",no longer required analgesics
same,Opiate requirement,"[2]; Case 11, two days after panitumumab, 100 mg depot morphine per 24 hours before",no longer required opiates
same,Side effects,"[3]; Case 11, panitumumab every 2 weeks",transient acne; also recorded: has otherwise not experienced any side effects
same,Side effect,"[3]; Case 12, panitumumab",skin rash grade 2-3
same,Side effects,[3]; [6],has not experienced any side effects to date
same,Sensibility,[4],beginning to regain sensibility in their fingers
